From patent publication US20010018445A1, “Pharmaceutical composition for the treatment of hepatocellular carcinoma” (TTY BIOPHARM COMPANY LIMITED, priority 2000, published 2001)

Tests used:
hepatocellular carcinoma [1] = format: in vivo, human
Protocol: FIGS. 1-4 show computerized abdominal tomography of a patient, before and after, treatment with thalidomide. […] The serum level of alpha-fetoprotein in the patient is 4335 μg/ml. […] The massive type index lesion at the left hepatic lobe shown in FIG. 3 has been reduced to the size of 3 cm×3 cm. The serum level of alpha-fetoprotein in the patient is 1501 μg/ml. In addition, the scan show the occurrence of ascitic fluid.
A patient weighted 55 kg with medical history of hepatitis C was diagnosed with hepatocellular carcinoma in December 1998 and treated with transcatheter arterial chemoembolization. They were treated with transcatheter arterial chemoembolization again in March and June 1999. According to the computerized abdominal tomography and gastrointestinal track barium enema, hepatocellular carcinoma invasion of the right colon and duodenum was doubted. The patient was treated with radiation on the right liver lobe during July to September 1999. After one-month of treatment, the serum level of alpha-fetoprotein in the patient increased from 105 μg/ml, before treatment, to 535 μg/ml. […] The patient was treated with a forth transcatheter arterial chemoembolization. The serum level of alpha-fetoprotein in the patient was increased to 1572 μg/ml.
The serum level of alpha-fetoprotein in the patient was up to 4335 μg/ml. The liver function exacerbated that the total bilirubin was […], GOT/GPT was 253/115 IU and alkaline phosphase (ALP) was 239 unit/l. […] A capsule containing 100 mg of thalidomide was orally administered to the patient twice daily during the thalidomide treatment. […] However, ascitic fluid was found. The abdominal paracentesis evidenced that ascitic fluid was caused by spontaneous bacterial peritonitis. […] The patient was then administered with antibiotics for the treatment of spontaneous bacterial peritonitis. The patient was still treated with thalidomide to the present.

hepatocellular carcinoma [2] = assay: Thalidomide treatment of two patients with metastatic and locally advanced hepatocellular carcinoma (Example 3); format: in vivo, human; details: thalidomide 100 mg twice daily
Protocol: Thalidomide was administered 100 mg twice daily. They were subjected to serum alpha-fetoprotein test every 2-4 weeks and computed tomography or magnetic resonance image examination every 4-8 weeks.

hepatocellular carcinoma [3] = assay: Clinical observation of thalidomide in hepatocellular carcinoma, summary statement on side effects; format: in vivo, human; details: patients with metastatic hepatocellular carcinoma or where local treatment has failed
Text: The subject invention utilizes thalidomide to treat metastatic hepatocellular carcinoma and hepatocellular carcinoma, where local treatment has failed.
The therapeutic efficacy of the pharmaceutical composition of the subject invention comprising thalidomide on the treatment of hepatocellular carcinoma has been supported by clinical observation as illustrated in the following examples.

[4] = in water, methanol, ethanol or acetone; cited from earlier work
[5] = system: tumor necrotic factor-alpha (TNF-I); details: Journal of Infectious Diseases, 1993, 168, p. 408-414; cited from earlier work
[6] = system: basic fibroblast growth factor-induced angiogenesis; details: Anti-Cancer Drugs, 1996, 7, p.339-343; cited from earlier work
angiogenesis = details: U.S. Pat. Nos. 5,593,990 and 5,629,327; cited from earlier work
[7] = women who took thalidomide in the first trimester of pregnancy; cited from earlier work
[8] = after treatment with thalidomide

SMILES: O=C1CCC(N2C(=O)c3ccccc3C2=O)C(=O)N1 (stereo not shown) [thalidomide, 2-(2,6-dioxo-3-piperidinyl)-1H-isoindolle-1,3(2H)-dione]
- hepatocellular carcinoma of the two liver lobes on follow-up MRI (hepatocellular carcinoma [1]; after four weeks of treatment): significantly remitted
- most diffused hepatocellular carcinoma infiltrating left and right hepatic lobes (computerized abdominal tomography) (hepatocellular carcinoma [1]; [8]): disappear
- variation of the serum level of alpha-fetoprotein (FIG. 5) (hepatocellular carcinoma [1]; [8]): significantly decreased
- right upper quadrant tenderness (hepatocellular carcinoma [1]; after two weeks of treatment, 100 mg orally twice daily): significantly relieved
- alkaline phosphase (ALP) (hepatocellular carcinoma [1]; human, in vivo): 233 unit/l
- serum level of alpha-fetoprotein (hepatocellular carcinoma [1]; one patient, 100 mg thalidomide capsule orally twice daily, after four weeks, 4335 μg/ml before treatment): 1501 µg/mL
- serum alpha-fetoprotein level (FIGS. 6 and 7) (hepatocellular carcinoma [2]): significant reduced
- side effects, such as arrest of bone marrow or hepatotoxicity (hepatocellular carcinoma [3]): without significant side effects
- solubility [4]: sparingly soluble
- inhibition of tumor necrotic factor-alpha (TNF-I) [5]: could effectively inhibit
- inhibition of basic fibroblast growth factor-induced angiogenesis [6]: could effectively inhibit
- inhibition of angiogenesis (angiogenesis): could effectively inhibit
- teratogenic effect [7]: would deliver terata, such as phocomelia
